Results as given in patent US12298308B2, “Neoadjuvant chemotherapy induces breast cancer metastasis through a TMEM-mediated mechanism” (Albert Einstein College of Medicine, priority 2017, dated 2025).

Key:
lung metastases = experiment: Lung metastasis and single cancer cell dissemination in lungs; type: in vivo, mouse
From the text: To further determine the effect of paclitaxel on cancer cell dissemination to distant sites, we harvested lungs and evaluated metastatic foci histologically. An increase was found in both the metastatic incidence (>1 micrometastatic focus of >5 tumor cells) (FIG. 3H) and the number of cancer cell micrometastases in the lungs of paclitaxel-treated mice (FIG. 3I). In addition, we quantified single cell dissemination of breast cancer cells in the lungs of FVB-recipient mice after syngeneic transplantation of MMTV-PyMT/Dendra2^+ tumors using ex vivo microscopy, and found an approximately 2-fold increase (p<0.01) of single Dendra2^+ breast cancer cells in the lungs of paclitaxel-treated mice (FIG. 3J). Overall, data presented in this section indicate that in early-stage breast cancers chemotherapy increases vascular permeability at TMEM sites which is accompanied by increased cancer cell dissemination.
Histology and TMEM Immunohistochemistry.

TMEM = TMEM score by triple-stain immunohistochemistry in mouse breast tumors; type: in vivo
From the text: (§1) This hypothesis was investigated in the following breast carcinoma models: (i) transgenic MMTV-PyMT mice bearing spontaneous breast tumors, (ii) FVB mice transplanted orthotopically with tumors from MMTV-PyMT donors, and (iii) two patient-derived xenografts (PDX), HT17 and HT33, developed previously in our laboratory (31). […] Treatment of all groups began at the early carcinoma stage (tumor size of ˜0.3 cm) when there is minimal or absent necrosis. It was decided to work with the early-stage PyMT mouse mammary carcinoma model because it more accurately reflects clinically relevant scenarios where most women present with small tumors of <2 cm (32).
(§2) Drug Administration. The following drugs were administered in mice: Paclitaxel was given at 10 mg/Kg i.v every 5 days for 2 weeks; Doxorubicin was given at 5 mg/Kg i.v. every 5 days for 2 weeks; Cyclophosphamide was given at 120 mg/Kg i.p. only once; Rebastinib was given at 10 mg/Kg per os, every 3-4 days for 4 weeks.
Animals and Animal Procedures. MMTV-PyMT mice were bred in-house at the Albert Einstein College of Medicine (AECOM). Generation of MMTV-PyMT Mena^−/− has been described previously (28). CFP- or Dendra2-labeled mammary carcinoma cells were generated on the FVB background by co-injection of Tg(MMTV-iCRE)1jwp together with Tg(PCAG-loxp-CATstop-loxp-CFP) or Tg(loxP-stop-loxP-PDendra2)jwp plasmids, respectively, by conventional methods in the Albert Einstein Transgenic Mouse Facility. All syngeneic transplantation models were generated through orthotopic transplantation of 1 mm×1 mm tumor chunks, using tumors of 1 cm-diameter from 12-16-week old MMTV-PyMT mena−/− or mena+/+ donor mice into 5-6 week-old FVB recipients. Tumor chunks were implanted on the fourth mammary pad on the left side. The generation of the ER^− HT17 and ER^+ HT33 patient-derived xenografts has been described previously (31). Animal handling and associated procedures were approved by the Institutional Animal Care and Use Committee (IACUC). Additional information is detailed in Supplementary Methods.
Histology and TMEM Immunohistochemistry. Breast tumors and lungs were isolated, rinsed in PBS, fixed in 10% neutral buffered formalin for 48 hours, dehydrated and embedded in paraffin. Sections (5 μm) were stained with H & E or TMEM triple-stain immunohistochemistry, as previously described (3).

breast tumors = experiment: Tumor growth in mouse breast carcinoma models; type: in vivo; conditions: 10 mg/Kg paclitaxel every five days, three times; vs non-treated controls
From the text: as §1, with “Herein, the possibility was examined that neoadjuvant paclitaxel promotes TMEM assembly and cancer cell dissemination and metastasis. This” for “This”, “(32). At the end of treatment all tumors were histologically classified as invasive carcinomas.” for “(32).”
as §2
Animals and Animal Procedures. MMTV-PyMT mice were bred in-house at the Albert Einstein College of Medicine (AECOM). Generation of MMTV-PyMT Mena^−/− has been described previously (28). […]

SMILES: CC(=O)O[C@H]1C(=O)[C@@]2(C)[C@H]([C@H](OC(=O)c3ccccc3)[C@]3(O)C[C@H](OC(=O)[C@H](O)[C@@H](NC(=O)c4ccccc4)c4ccccc4)C(C)=C1C3(C)C)[C@]1(OC(C)=O)CO[C@@H]1C[C@@H]2O [paclitaxel]
- increase of single Dendra2^+ breast cancer cells in the lungs (lung metastases; FVB recipients of MMTV-PyMT/Dendra2^+ tumors, ex vivo microscopy, p<0.01): approximately 2 fold
- disseminated cells in the lungs (lung metastases; Mena^-/- PyMT-CFP transplants): failed to boost
- metastatic incidence (>1 micrometastatic focus of >5 tumor cells) in lungs (lung metastases; histological evaluation): increase
- number of cancer cell micrometastases in the lungs (lung metastases; histological evaluation): increase
- TMEM score, fold higher compared to non-treated controls (TMEM; all experimental models tested, 10 mg/Kg every five days, three times, p<0.001): 2- to 3 fold
- overall TMEM score (TMEM assembly) (TMEM; single agent vs vehicle, PyMT-transplantation and HT17 xenograft): significant increases
- tumor growth (breast tumors): delayed tumor growth
